Measurements taken from publication PMC9350837, “Erwinia tasmaniensis levansucrase shows enantiomer selection for (S)-1,2,4-butanetriol” (Acta Crystallographica. Section F, Structural Biology …, 2022).

Biological target: T1, EtLsc (Erwinia tasmaniensis levansucrase) (Erwinia tasmaniensis, UniProt B2VCC3)
T1 construct: gene lsc; lsc gene amplified from Et1/99, pMCSG49 vector, E. coli BL21(DE3) Star pLysS; His6 tag cleaved with TEV protease; IMAC and size exclusion; catalytic triad Asp46, Asp203, Glu287
T1 sequence (B2VCC3 entry or part of it): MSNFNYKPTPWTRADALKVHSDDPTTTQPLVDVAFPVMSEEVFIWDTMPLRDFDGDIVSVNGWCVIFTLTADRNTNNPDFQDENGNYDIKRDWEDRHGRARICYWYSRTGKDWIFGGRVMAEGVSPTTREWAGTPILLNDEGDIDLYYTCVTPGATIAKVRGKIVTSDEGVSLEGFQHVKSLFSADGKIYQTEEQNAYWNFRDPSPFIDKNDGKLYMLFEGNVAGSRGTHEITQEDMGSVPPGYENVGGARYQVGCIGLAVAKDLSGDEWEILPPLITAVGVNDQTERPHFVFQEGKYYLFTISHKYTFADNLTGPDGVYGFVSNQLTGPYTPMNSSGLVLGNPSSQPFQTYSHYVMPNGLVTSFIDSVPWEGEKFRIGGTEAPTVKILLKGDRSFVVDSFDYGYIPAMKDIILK
Assay: microscale thermophoresis, label-free (Monolith NT.LabelFree)
Type: binding

OCC[C@H](O)CO (mixture of isomers) [(S)-1,2,4-butanetriol]
Kd: 84.9 ± 13.4 mM
